“And” between values parts separate entries of the source, which are not always exact repeats. Equal entries are not always repeated. Where two headings read alike, the source gives them in different places.
What was measured:
[1] = tested on: SARS-CoV-2 5356/κ; assay: microbe, parasite or virus in culture; type: cell-based
[2] = tested on: SARS-CoV-2 QHN001/α; assay: microbe, parasite or virus in culture; type: cell-based
[3] = tested on: SARS-CoV-2 TY8-612/β; assay: microbe, parasite or virus in culture; type: cell-based
[4] = tested on: SARS-CoV-2 TY7-501/γ; assay: microbe, parasite or virus in culture; type: cell-based
[5] = tested on: SARS-CoV-2 K1734/δ; assay: microbe, parasite or virus in culture; type: cell-based
[6] = tested on: SARS-CoV-2^WK-521; assay: microbe, parasite or virus in culture; type: cell-based; details: read-out: EC50 in cell-based assays
[7] = tested on: SARS-CoV-2 Delta, BA.1 and BA.2 variants; parameters: species or system hACE2 knock-in mice; details: mouse, in vivo, ip
[8] = tested on: SARS-CoV-2 Delta, BA.1 and BA.2 variants; parameters: species or system hACE2 knock-in mice; details: mouse, in vivo
[9] = biological target: Glycine-added M^pro (Severe acute respiratory syndrome coronavirus 2, UniProt P0DTD1)
[10] = read-out: EC50 κ, individual assays
[11] = read-out: EC50 α, individual assays
[12] = read-out: EC50 β, individual assays
[13] = read-out: EC50 γ, individual assays
[14] = read-out: EC50 δ, individual assays
[15] = read-out: EC50 against QHN001/α
[16] = read-out: EC50 against TY8-612/β
[17] = read-out: EC50 against Y7-501/γ

Row | Compound | EC50 [1, 10] | EC50 [2, 11] | EC50 [3, 12] | EC50 [4, 13] | EC50 [5, 14] | Effect on lung virus titers (in words) [7] | EC50 ([1]; read-out: EC50 κ, Average) [nM] | EC50 [2, 15] [nM] | EC50 ([2]; read-out: EC50 α, Average) [nM] | EC50 [3, 16] [nM] | EC50 ([3]; read-out: EC50 β, Average) [nM] | EC50 [4, 17] [nM] | EC50 ([4]; read-out: EC50 γ, Average) [nM] | EC50 ([5]; read-out: EC50 δ, Average) [nM] | further results
1 | CC(C)(C)[C@H](NC(=O)C(F)(F)F)C(=O)N1C[C@H]2[C@@H]([C@H]1C(=O)N[C@H](C#N)C[C@@H]1CCNC1=O)C2(C)C [Nirmatrelvir, reference compound] | 1650 nM and 2270 nM and 1060 nM | 1420 nM | 1700 nM and 1230 nM | 2200 nM and 2780 nM | 1420 nM and 1570 nM |  |  |  |  |  |  |  |  |  | EC50 ([1]; Severe acute respiratory syndrome coronavirus 2, Vero C1008, read-out: EC50 against 5356/k): 1660 ± 606 nM; EC50 ([1]; Severe acute respiratory syndrome coronavirus 2, Vero C1008, read-out: EC50 κ, Average): 1660 nM; EC50 ([2]; Severe acute respiratory syndrome coronavirus 2, Vero C1008, read-out: EC50 against QHN001/α): 1980 ± 559 nM; EC50 ([2]; Severe acute respiratory syndrome coronavirus 2, Vero C1008, read-out: EC50 α, Average): 1980 nM; EC50 ([2]; Severe acute respiratory syndrome coronavirus 2, Vero C1008, read-out: EC50 α, individual assays): 2540 nM; EC50 ([3]; Severe acute respiratory syndrome coronavirus 2, Vero C1008, read-out: EC50 against TY8-612/β): 1500 ± 240 nM; EC50 ([3]; Severe acute respiratory syndrome coronavirus 2, Vero C1008, read-out: EC50 β, Average): 1500 nM; EC50 ([3]; Severe acute respiratory syndrome coronavirus 2, Vero C1008, read-out: EC50 β, individual assays): 1560 nM; EC50 ([4]; Severe acute respiratory syndrome coronavirus 2, Vero C1008, read-out: EC50 against Y7-501/γ): 2490 ± 292 nM; EC50 ([4]; Severe acute respiratory syndrome coronavirus 2, Vero C1008, read-out: EC50 γ, Average): 2490 nM; EC50 ([4]; Severe acute respiratory syndrome coronavirus 2, Vero C1008, read-out: EC50 γ, individual assays): 2500 nM; EC50 ([5]; Severe acute respiratory syndrome coronavirus 2, Vero C1008, read-out: EC50 against K1734/δ): 1500 ± 78 nM; EC50 ([5]; Severe acute respiratory syndrome coronavirus 2, Vero C1008, read-out: EC50 δ, individual assays): 1510 nM
2 | CC(C)(C)[C@H](NC(=O)C(F)(F)F)C(=O)N1C[C@H]2[C@@H]([C@H]1C(=O)N[C@@H](C[C@@H]1CCNC1=O)C(=O)c1nc3c(F)cccc3s1)C2(C)C [TKB245] | 19.2 nM and 22.4 nM | 90 nM and 20 nM and 15.8 nM | 19 nM and 36 nM | 10 nM and 58.2 nM and 100 nM | 27.6 nM and 33.6 nM | considerably reduced titers of both variants in lung | 20.6 | 42 ± 42 | 42 | 28 ± 9 | 28.4 | 56 ± 45 | 56.1 | 30.4 | EC50 [6]: ~30 nM; Chest micro-CT images vs vehicle control [8]: No relevant differences were; Lung immunohistochemistry, SARS-CoV-2 nucleocapsid protein vs vehicle group [8]: no relevant change in number
3 | CC(C)(C)[C@H](NC(=O)C(F)(F)F)C(=O)N1C[C@H]2[C@@H]([C@H]1C(=S)N[C@@H](C[C@@H]1CCNC1=O)C(=O)c1nc3c(F)cccc3s1)C2(C)C [TKB248] | 215 nM and 145 nM | 300 nM and 299 nM | 290 nM and 291 nM and 282 nM | 288 nM and 165 nM | 270 nM and 311 nM and 240 nM | exerted comparable efficacy against both Omicron BA.1 and BA.2 variants | 180 | 300 ± 1 | 300 | 287 ± 5 | 288 | 228 ± 61 | 228 | 274 | Peak ratio, Dimer-1X compound [9]: 9.9%; Peak ratio, Dimer-2X compound [9]: 28.4%; EC50 ([1]; read-out: EC50 against 5356/k): 180 ± 35 nM; EC50 ([5]; read-out: EC50 against K1734/δ): 273 ± 36 nM
